Here are results for 1 compound from paper PMC11042424, “Development of a First-in-Class RIPK1 Degrader to Enhance Antitumor Immunity” (Research Square, 2024).

The subject of this assay is B16F10 tumors. Kind of assay: Five-day treatment of B16F10 tumors: cell death and tumor immune microenvironment. It counts as in vivo, C57BL/6J mice. An excerpt:
Figure 5 LD4172 alters the tumor immune microenvironment. A. Representative immunofluorescent images depict RIPK1, Calreticulin, CD8, CD4, Foxp3, or F4/80, as well as hematoxylin and eosin (H&E) images, alongside representative images illustrating cleaved caspase3/7 levels in B16F10 tumors under the indicated treatment for five days. n = 4–6 independent fields per group. Scale bars are shown as follows: 20 μm, objective 60X; 200 μm, objective 60X. B. The mouse plasma HMGB1 level from different treatment groups (n=8). C-G. Flow cytometry quantification of PD1+CD8+ T cells (C), CD4+ T cells (D), cDC cells (E), macrophages (F), and CD8+ T cells (G) in B16F10 tumors following 5 days of indicated treatment (n = 10/group). H. Flow cytometric quantification of IFNγ+ CD8+ T cells in B16F10 tumors treated with the indicated treatments for 5 days and stimulated with PMA/ionomycin in vitro for 6 h (n = 10/group). I. Tumor volume (mm3) of vehicle-, anti-PD1-, LD4172-, anti-PD1+LD4172-, and anti-PD1+LD4172+anti-CD8–treated B16F10 tumors (n=8). J. Heat map showing log 10-fold changes in the concentration of mouse plasma cytokines normalized by the mean value of control mice (n=8). For all experiments: LD4172: 20 mg/kg; anti-PD1 antibody: 100 μg/mice; Combo: LD4172 plus anti-PD1. Representative data from at least three independent experiments are shown. Data are expressed as the mean ± SEM. * p<0.05; ** p<0.01; *** p<0.001; **** p<0.0001, respectively. “ns” indicates no statistical significance.
Tumors were collected on day 13, weighed, mechanically diced, and digested with liberase (2 mg/mL, 05401020001, Roche) and DNase I (50 μg/mL, 11284932001, Sigma-Aldrich) at 37°C for 30 minutes with rotation. Single-cell suspensions were obtained by filtering the digested tissues through a 45 μm strainer, after which erythrocytes were removed using 1x RBC lysis buffer (420301, Biolegend). To stain the cell surface markers of tumor-infiltrating lymphocytes (TILs), single-cell suspensions were blocked with anti-mouse CD16/32 (156603, BioLegend) for 10 minutes on ice, and then incubated with fluorochrome-labeled antibodies diluted with staining buffer (1:50, PBS, 2% FBS, 0.1% EDTA) for 30 minutes on ice in the dark. Dead cells were excluded using DAPI (1:1,000, BioLegend). After washing, cells were resuspended in 300–500 μL staining buffer for flow cytometry analysis. For intracellular cytokine staining, cells were incubated in culture medium (RPMI-1640, 10% FBS, Brefeldin A or Cell Activation Cocktail (with Brefeldin A)) at 37°C for 6 h. Cells were stained with eBioscience™ Fixable Viability Dye eFluor™ 450, TruStain FcX™ PLUS and surface CD45, CD3ε, CD8a. Cells were fixed-permeabilized by Intracellular Fixation & Permeabilization Buffer Set (Biolegend, 421403) according to the manufacturer’s protocol. Then cells were stained with anti-IFNγ (XMG1.2) for 1 hour at room temperature (RT). Cells were resuspended in FACS buffer and subjected to BD LSR-II for analysis.
Mouse serum was analyzed using multiplex immunoassays designed for mice (Mouse Cytokine Array / Chemokine Array 31-Plex (MD31) from Eve Technologies), with 8 replicates from each group. Heatmaps display relative cytokine expression values normalized to vehicle-treated samples. Serum HMGB1 was analyzed by ELISA (NOVUS, NBP2–62767) according to the manufacturer’s protocol.
For H&E staining, the hydrated slides were stained with hematoxylin and eosin. For IHC analysis, after hydration, the sections were subjected to antigen retrieval by incubating in citrate buffer (pH 6.0), Tris EDTA buffer (pH 9.0), or EDTA buffer (pH 8.0) at 121°C for 15 minutes. Endogenous peroxidase was blocked with 3% H2O2 in PBS, and non-specific binding was blocked with 2.5% normal serum for 1 hour at room temperature. The sections were then incubated with the respective primary antibodies overnight at 4°C. […]

For `Cc1ncsc1-c1ccc([C@H](C)NC(=O)[C@@H]2C[C@@H](O)CN2C(=O)[C@@H](NC(=O)CCCCCCCCCCC(=O)NCCCn2cc(-c3ccc4c(c3)CCN4C(=O)Cc3cccc(OC(F)(F)F)c3)c3c(N)ncnc32)C(C)(C)C)cc1` [LD4172], under “20 mg/kg”, the “RIPK1 degradation in the tumor” value is recorded as “substantial degradation of RIPK1”, the “cell death in the tumor (H&E)” value is given as “significant cell death”, the “cleaved caspase 3/7 levels in tumors” value is on record as “notable increase” and the “plasma HMGB1 levels” value is “significant increase”. Also, the “CD4 + T cells, conventional dendritic cells and macrophages within the TME” value (20 mg/kg, flow cytometry) is on record as “notable expansion”. The “cytotoxic CD8 + T cells within the TME, combined with anti-PD1” value (LD4172 20 mg/kg plus anti-PD1 100 μg) is on record as “increased infiltration”.
